The text below walks through data of PMC4794788, “Cell‐free synthesis of isotopically labelled peptide ligands for the functional characterization of G protein‐coupled receptors” (FEBS Open Bio, 2015).

Where “and” joins values, the source holds several entries; their conditions need not be identical. Identical values can stand only once. Entries after “also recorded” stand apart in the source; their conditions may differ.

Data set [1] addresses endothelin receptors (Table 1: compared with ETBR). The note with it: determined with ^125I‐ET‐1 on receptors from native human tissues; literature comparison; cited from earlier work.
For data set [2], the target named is T1, human complement 5a receptor (C5aR) (Homo sapiens, UniProt P21730).
T1 construct: 10x His (N); FLAG (N); StrepII (C); made in house; host or cells: Sf9 insect cells (recombinant baculovirus, pOET5 / flashBAC); membrane preparation
T1 sequence (P21730 1-350): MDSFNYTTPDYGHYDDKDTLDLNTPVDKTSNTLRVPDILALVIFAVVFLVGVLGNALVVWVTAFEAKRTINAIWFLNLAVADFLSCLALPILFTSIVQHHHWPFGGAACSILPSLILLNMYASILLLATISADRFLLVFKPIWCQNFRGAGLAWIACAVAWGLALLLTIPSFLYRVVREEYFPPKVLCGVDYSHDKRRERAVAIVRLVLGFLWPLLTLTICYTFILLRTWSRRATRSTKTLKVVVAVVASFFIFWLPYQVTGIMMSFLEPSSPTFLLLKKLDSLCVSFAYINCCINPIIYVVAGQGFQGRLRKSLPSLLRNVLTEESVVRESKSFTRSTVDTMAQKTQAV
As to the kind of experiment: Competition binding against [^3H]‐C5a^CF at C5aR in Sf9 membranes. The note with it: read-out: KI (inhibition constant). The text has this:
The complement 5a receptor was coproduced with Gαi2 in Sf9 insect cells. The cDNA encoding the human complement 5a receptor flanked by an N‐terminal 10x His and FLAG tag and a C‐terminal StrepII tag was cloned into the pOET5 transfer vector (Oxford Expression Technologies, Oxford, UK). pOET5 contains two expression cassettes, the receptor is expressed under the control of a polyhedron promoter; Gαi2 expression is regulated by a p10 promoter. Recombinant baculoviruses were generated with the flashBAC protein expression system (Oxford Expression Technologies) according to manufacturer's instructions. […] Total membrane protein content was determined by the bicinchoninic acid (BCA) method using bovine serum albumin as the standard.
For the determination of binding parameters, membranes containing the respective receptors (10–50 μg total membrane protein) were incubated with cell‐free synthesized tritium‐labelled ligands in varying concentrations. Binding was terminated by rapid filtration over glass fibre filters pretreated with 0.3% polyethyleneimine using a Brandel harvester (Brandel, Alpha Biotech Ltd, Killearn, UK) and analysed by liquid scintillation counting. […]
Data are represented as means ± SEM from three or two independent experiments performed in triplicate and analysed in […] […]

Data set [3] deals with C5aR. As to conditions: literature comparison; cited from earlier work. The source says: Table 1 Binding parameters of cell‐free synthesized radioligands | column: Literature IC50 [nM]
A short description of data set [4]: Solubility/precipitation of cell‐free translated peptide in the reaction mix. It counts as physicochemical. The note with it: soluble vs pellet fraction. The method, then: Complement 5a is flanked by an N‐terminal 6x His tag followed by a tobacco etch virus (TEV) cleavage site. […] Expression of both constructs is controlled by a T7 promoter. Cell‐free synthesis was accomplished using a homemade S30 extract from E. coli 6. The extract was prepared from the E. coli A19 strain, described in detail in 6. The T7 RNA polymerase was produced and purified as published 50. Cell‐free reactions were executed in continuous exchange mode by using different sizes of D‐Tube™ dialyzers (Merck Millipore) (mini for reactions containing labelled amino acids and maxi for reactions with unlabeled amino acids) and a 1 : 17 ratio between reaction (RM) and feeding mix (FM). Mini D‐tube™ dialyzers were placed into 2 mL tubes filled with feeding mix, maxi dialyzers into 50 mL tubes, respectively. […] Reactions were incubated at 30 °C, 100 rpm in an Infors Multitron shaker incubator (Infors, Bottmingen, Switzerland) overnight. Cell‐free reactions were analysed by SDS/PAGE using 10% Bis/Tris Novex NuPAGE gels (Life Technologies).

The target in data set [5] is C5aR. As to conditions: C5aR in native human tissues; literature comparison; cited from earlier work. The method, then:
Table 1 Binding parameters of cell‐free synthesized radioligands | column: Literature KD [nM] || As the interaction between C5a and its receptor is mainly mediated by the disulphide bridged core region of C5a (residues 21–55, 22) and the C‐terminal region (especially Arg^74 30) the N‐terminal hexa‐histidine tag was not removed. The cell‐free synthesized ligand binds to the complement 5a receptor with a dissociation constant of 1.18 ± 0.27 nM (Fig. 4A), which corresponds to values determined by Gerard and Gerard for C5aR in native human tissues (1 nM 31, Table 1). Competition experiments with the unlabelled small molecule inverse agonist NDT 9513727 and the peptide antagonist H2N‐ChaW resu ...

Setting [6] is: with DsbA and reduced glutathione (GSH) replacing DTT.

For ^125I‐ET‐1: ^125I‐labelled endothelin‐1, the dissociation constant (Kd) in data set [1] is 0.33 nM.

`CCCCn1c(-c2ccccc2)nc(-c2ccccc2)c1CN(Cc1ccc2c(c1)OCO2)Cc1ccc2c(c1)OCO2` [NDT 9513727, N,N‐Bis(1,3‐benzodioxol‐5‐ylmethyl)‐1‐butyl‐2,4‐diphenyl‐1H‐imidazole‐5‐methanamine]: the inhibition constant Ki in data set [2] was 169 nM and 54.5 nM. In addition, the IC50 in the data set on C5aR [3] was 11.6 ± 1 nM.

Consider `CC[C@H](C)[C@H](NC(=O)[C@H](CC(=O)O)NC(=O)[C@H](CC(C)C)NC(=O)[C@H](Cc1cnc[nH]1)NC(=O)[C@@H]1CSSC[C@H](N)C(=O)N[C@@H](CO)C(=O)N[C@H]2CSSC[C@H](NC(=O)[C@H](CCC(=O)O)NC(=O)[C@H](CCCCN)NC(=O)[C@H](CC(=O)O)NC(=O)[C@H](CCSC)NC(=O)[C@H](CC(C)C)NC(=O)[C@H](CO)NC(=O)[C@H](CO)NC2=O)C(=O)N[C@@H](C(C)C)C(=O)N[C@@H](Cc2ccc(O)cc2)C(=O)N[C@@H](Cc2ccccc2)C(=O)N1)C(=O)N[C@H](C(=O)N[C@@H](Cc1c[nH]c2ccccc12)C(=O)O)[C@@H](C)CC` [Endothelin‐1, reference compound], for which the “Solubility/precipitation of cell‐free product” value in data set [4] (reducing conditions (DTT), without DsbA, listed as ET‐1) is given as “strong precipitation; also recorded: heavy precipitation”; in data set [4] (setting [6]) it was “did not display any precipitates”.

B1: C5a^CF: cell‐free‐synthesized complement 5a containing the N‐terminal 6xHis tag and TEV cleavage site (protein, UniProt P01031 678-751, looked up)
C5a anaphylatoxin: TLQKKIEEIAAKYKHSVVKKCCYDGACVNNDETCEQRAARISLGPRCIKAFTECCVVASQLRANISHKDMQLGR
modifications: C5a anaphylatoxin N-terminal 6xHis tag and TEV site
notes: cell‐free‐synthesized complement 5a containing the N‐terminal 6xHis tag and TEV cleavage site
For the molecule B1, the “Solubility/precipitation of cell‐free product” value was “strong precipitation; also recorded: insoluble and can only be detected in the pellet fraction; also recorded: heavy precipitation” in data set [4] (reducing conditions (DTT), without DsbA); “did not display any precipitates; also recorded: can be detected in the soluble fraction” in data set [4] (setting [6]).

B2: ^125I‐C5a: commercially available ^125I‐C5a (protein, UniProt P01031 678-751, looked up)
C5a anaphylatoxin: B1 C5a anaphylatoxin
modifications: C5a anaphylatoxin 125I-labelled
notes: commercially available ^125I‐C5a
As for B2, the Kd on C5aR [5] is 1 nM.
